Measurements: the Kinase Knowledgebase extract (Sharma et al. 2016)

What was measured:
[1] = molecular target: PIK3CG (human) (UniProt P48736); assay: Assessment of PI3KCG Kinase Activity
[2] = molecular target: PIK3CD (Human) (UniProt O00329); assay: Assessment of PI3KCD Kinase Activity
Chain of PIK3CD (Human) (O00329 whole entry, looked up): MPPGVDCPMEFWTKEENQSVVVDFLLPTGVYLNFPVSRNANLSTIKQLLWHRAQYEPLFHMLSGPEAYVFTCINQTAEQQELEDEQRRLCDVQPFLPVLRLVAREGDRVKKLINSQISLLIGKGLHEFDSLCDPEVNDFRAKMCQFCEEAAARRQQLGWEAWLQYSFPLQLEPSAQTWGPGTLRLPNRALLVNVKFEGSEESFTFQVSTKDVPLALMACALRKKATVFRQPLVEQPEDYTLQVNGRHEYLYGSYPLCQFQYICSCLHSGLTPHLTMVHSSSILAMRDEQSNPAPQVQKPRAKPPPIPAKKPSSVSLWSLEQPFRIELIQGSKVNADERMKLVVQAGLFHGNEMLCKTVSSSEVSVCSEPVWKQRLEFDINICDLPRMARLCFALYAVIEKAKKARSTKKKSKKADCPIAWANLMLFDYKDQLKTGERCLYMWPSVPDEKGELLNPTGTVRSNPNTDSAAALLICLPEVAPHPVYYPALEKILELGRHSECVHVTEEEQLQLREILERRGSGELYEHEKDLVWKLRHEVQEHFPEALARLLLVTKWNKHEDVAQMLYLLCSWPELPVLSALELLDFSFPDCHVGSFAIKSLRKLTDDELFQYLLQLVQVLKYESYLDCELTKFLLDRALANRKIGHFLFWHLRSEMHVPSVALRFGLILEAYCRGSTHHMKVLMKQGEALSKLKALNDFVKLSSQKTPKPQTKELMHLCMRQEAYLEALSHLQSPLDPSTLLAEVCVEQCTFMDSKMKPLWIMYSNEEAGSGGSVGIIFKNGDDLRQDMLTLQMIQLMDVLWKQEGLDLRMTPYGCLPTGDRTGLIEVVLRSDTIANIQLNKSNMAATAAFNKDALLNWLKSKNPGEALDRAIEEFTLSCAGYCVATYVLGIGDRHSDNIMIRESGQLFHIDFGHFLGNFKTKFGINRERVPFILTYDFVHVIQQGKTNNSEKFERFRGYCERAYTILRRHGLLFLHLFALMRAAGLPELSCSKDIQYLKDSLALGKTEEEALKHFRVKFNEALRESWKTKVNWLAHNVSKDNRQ

Chain of PIK3CG (human) (P48736 whole entry, looked up): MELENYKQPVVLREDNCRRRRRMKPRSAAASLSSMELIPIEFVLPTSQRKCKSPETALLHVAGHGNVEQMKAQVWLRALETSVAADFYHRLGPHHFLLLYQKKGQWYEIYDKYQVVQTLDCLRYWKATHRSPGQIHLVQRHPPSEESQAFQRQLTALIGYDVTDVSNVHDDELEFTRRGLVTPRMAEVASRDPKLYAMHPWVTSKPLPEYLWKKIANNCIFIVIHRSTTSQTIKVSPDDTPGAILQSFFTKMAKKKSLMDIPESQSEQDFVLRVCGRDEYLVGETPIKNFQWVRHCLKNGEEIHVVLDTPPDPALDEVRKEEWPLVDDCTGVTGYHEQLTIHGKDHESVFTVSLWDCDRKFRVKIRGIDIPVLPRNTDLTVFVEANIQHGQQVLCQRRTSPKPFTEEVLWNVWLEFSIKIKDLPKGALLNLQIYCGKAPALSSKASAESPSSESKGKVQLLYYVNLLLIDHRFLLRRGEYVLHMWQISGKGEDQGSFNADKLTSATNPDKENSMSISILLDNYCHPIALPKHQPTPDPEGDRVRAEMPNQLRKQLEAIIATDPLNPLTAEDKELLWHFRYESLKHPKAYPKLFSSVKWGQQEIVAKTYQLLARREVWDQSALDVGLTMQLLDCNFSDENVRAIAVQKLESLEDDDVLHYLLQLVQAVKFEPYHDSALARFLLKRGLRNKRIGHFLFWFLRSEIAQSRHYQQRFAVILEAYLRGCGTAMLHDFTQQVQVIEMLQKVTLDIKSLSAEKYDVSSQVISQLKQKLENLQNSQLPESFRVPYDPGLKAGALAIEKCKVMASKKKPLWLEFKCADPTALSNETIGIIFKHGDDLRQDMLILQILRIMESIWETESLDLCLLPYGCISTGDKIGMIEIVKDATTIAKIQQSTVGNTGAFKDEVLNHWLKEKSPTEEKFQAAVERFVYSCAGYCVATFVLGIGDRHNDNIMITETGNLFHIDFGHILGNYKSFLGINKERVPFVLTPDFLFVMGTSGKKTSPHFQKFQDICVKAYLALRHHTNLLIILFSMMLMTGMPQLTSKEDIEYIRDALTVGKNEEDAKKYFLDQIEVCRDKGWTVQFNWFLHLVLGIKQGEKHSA

SMILES	IC50 [1]	IC50 [2]
Cc1cccc2cc(Cn3nc(-c4cc(O)cc(F)c4)c4c(N)ncnc43)n(C3CCCC3)c(=O)c12	< 100 nM	< 100 nM
Cc1csc2nc(Cn3nc(-c4cccc(O)c4)c4c(N)ncnc43)n(-c3ccccc3C(F)(F)F)c(=O)c12	< 100 nM	< 100 nM
Cc1cccnc1-n1c(Cn2nc(-c3ccc(F)c(O)c3)c3c(N)ncnc32)cc2cccc(C)c2c1=O	< 100 nM	< 100 nM
Cc1ccccc1-n1c(Cn2nc(-c3ccc4cc[nH]c4c3)c3c(N)ncnc32)nc2scc(C)c2c1=O	< 100 nM	< 100 nM
Cc1ccccc1-n1c(C(C)Nc2ncnc3[nH]cnc23)cc2cccc(C)c2c1=O (stereo not drawn)	< 100 nM	< 100 nM
Cc1ccccc1-n1c(Cn2nc(-c3ccc4nc(N)sc4c3)c3c(N)ncnc32)cc2cccc(C)c2c1=O	< 100 nM	< 100 nM
Cc1csc2nc(Cn3nc(-c4ccc(O)c(F)c4)c4c(N)ncnc43)n(-c3ccccc3F)c(=O)c12	< 100 nM	
Cc1cccc2cc(Cn3nc(-c4ccc(Cl)c(O)c4)c4c(N)ncnc43)n(-c3ccccc3F)c(=O)c12	< 100 nM	< 100 nM
Cc1ccccc1-n1c(Cn2nc(C=CC(N)=O)c3c(N)ncnc32)cc2cccc(C)c2c1=O	< 100 nM	< 100 nM
Cc1csc2nc(Cn3nc(Br)c4c(N)ncnc43)n(-c3ccccc3C(C)C)c(=O)c12	< 100 nM	< 100 nM
Cc1csc2nc(Cn3nc(C#C[C@@H](C)O)c4c(N)ncnc43)n(-c3ccccc3F)c(=O)c12	< 100 nM	< 100 nM
CC(=O)Nc1nc2ccc(-c3nn(Cc4cc5cccc(C)c5c(=O)n4-c4cccc(F)c4)c4ncnc(N)c34)cc2s1	< 100 nM	< 100 nM
CC(=O)Nc1nc2ccc(-c3nn(Cc4cc5cccc(C)c5c(=O)n4-c4ccccc4)c4ncnc(N)c34)cc2s1	< 100 nM	< 100 nM
Cc1ccccc1-n1c(Cn2nc(-c3cccc(O)c3)c3c(N)ncnc32)cc2cccc(F)c2c1=O	< 100 nM	< 100 nM
Cc1ccccc1-n1c(Cn2nc(-c3cc(O)cc(F)c3)c3c(N)ncnc32)cc2nccc(C)c2c1=O	< 100 nM	< 100 nM
CC(=O)Nc1nc2ccc(-c3nn(Cc4cc5cccc(C)c5c(=O)n4-c4ccccc4C)c4ncnc(N)c34)cc2s1	< 100 nM	
Cc1cccc2cc(Cn3nc(-c4cn[nH]c4)c4c(N)ncnc43)n(-c3ccccc3C(C)C)c(=O)c12	< 100 nM	< 100 nM
Cc1ccccc1-n1c(Cn2nc(-c3ccc(F)c(O)c3)c3c(N)ncnc32)cc2cccc(C)c2c1=O	< 100 nM	< 100 nM
Cc1ccccc1-n1c(Cn2nc(-c3ccc(F)c(O)c3)c3c(N)ncnc32)nc2scc(C)c2c1=O	< 100 nM	< 100 nM
Cc1cccc2cc(Cn3nc(I)c4c(N)ncnc43)n(-c3ccccc3O)c(=O)c12	< 100 nM	< 100 nM
Cc1cccc2cc(Cn3nc(-c4cc(O)cc(F)c4)c4c(N)ncnc43)n(-c3ccccc3C(C)C)c(=O)c12	< 100 nM	< 100 nM
Cc1ccccc1-n1c(Cn2nc(-c3ccc(O)c(F)c3)c3c(N)ncnc32)cc2cccc(C)c2c1=O	< 100 nM	< 100 nM
CCc1ccccc1-n1c(Cn2nc(-c3cn[nH]c3)c3c(N)ncnc32)cc2cccc(C)c2c1=O	< 100 nM	< 100 nM
Cc1ccccc1-n1c(Cn2nc(-c3cccc(O)c3)c3c(N)ncnc32)nc2scc(C)c2c1=O	< 100 nM	< 100 nM
Cc1cccc2cc(C(C)Nc3ncnc4[nH]cnc34)n(-c3ccccc3F)c(=O)c12 (stereo not drawn)	< 100 nM	< 100 nM

SMILES	IC50 [1]	IC50 [2]
Cc1ccccc1-n1c(Cn2nc(Br)c3c(N)ncnc32)cc2cccc(C)c2c1=O	< 100 nM	< 100 nM
Cc1cccc2cc(Cn3nc(-c4cccc(O)c4)c4c(N)ncnc43)n(-c3ccccc3Cl)c(=O)c12	< 100 nM	< 100 nM
Cc1ccccc1-n1c(Cn2nc(-c3cc(O)cc(F)c3)c3c(N)ncnc32)cc2ccccc2c1=O	< 100 nM	< 100 nM
Cc1csc2nc(Cn3nc(-c4cc(O)cc(F)c4)c4c(N)ncnc43)n(-c3ccccc3F)c(=O)c12	< 100 nM	< 100 nM
Cc1ccccc1-n1c(Cn2nc(-c3ccc(O)cc3)c3c(N)ncnc32)cc2cccc(C)c2c1=O	< 100 nM	
Cc1cccc2cc(Cn3nc(-c4cccc(O)c4)c4c(N)ncnc43)n(-c3ccccc3C(C)C)c(=O)c12	< 100 nM	< 100 nM
Cc1ccccc1-n1c(Cn2nc(-c3ccc(O)c(Cl)c3)c3c(N)ncnc32)nc2scc(C)c2c1=O	< 100 nM	< 100 nM
CCc1ccccc1-n1c(Cn2nc(-c3cccc(O)c3)c3c(N)ncnc32)nc2scc(C)c2c1=O	< 100 nM	< 100 nM
Cc1ccccc1-n1c(Cn2nc(-c3ccc(Cl)c(O)c3)c3c(N)ncnc32)cc2cccc(C)c2c1=O	< 100 nM	< 100 nM
Cc1ccccc1-n1c(Cn2nc(C3=CCC4OC(N)=NC4=C3)c3c(N)ncnc32)cc2cccc(C)c2c1=O (stereo not drawn)	< 100 nM	< 100 nM
Cc1ccccc1-n1c(Cn2nc(-c3ccc(Cl)c(O)c3)c3c(N)ncnc32)cc2ccccc2c1=O	< 100 nM	< 100 nM
Cc1cccnc1-n1c(Cn2nc(-c3cc(O)cc(F)c3)c3c(N)ncnc32)cc2cccc(C)c2c1=O	< 100 nM	< 100 nM
Cc1cccc2cc(Cn3nc(-c4ccc(O)c(Cl)c4)c4c(N)ncnc43)n(-c3ccccc3F)c(=O)c12	< 100 nM	
CCc1ccccc1-n1c(Cn2nc(-c3cc(O)cc(F)c3)c3c(N)ncnc32)cc2cccc(C)c2c1=O	< 100 nM	< 100 nM
COc1ccc(-c2nn(Cc3cc4cccc(C)c4c(=O)n3-c3ccccc3C)c3ncnc(N)c23)cc1OC	< 100 nM	
Cc1ccccc1-n1c(Cn2nc(C)c3c(N)ncnc32)nc2scc(C)c2c1=O	< 100 nM	< 100 nM
Cc1csc2nc(Cn3nc(I)c4c(N)ncnc43)n(-c3ccccc3C(C)C)c(=O)c12	< 100 nM	< 100 nM
CCc1ccccc1-n1c(Cn2nc(Br)c3c(N)ncnc32)nc2scc(C)c2c1=O	< 100 nM	< 100 nM
Cc1cccc2cc(Cn3nc(-c4ccc(F)c(O)c4)c4c(N)ncnc43)n(C3CCCC3)c(=O)c12	< 100 nM	< 100 nM
Cc1ccccc1-n1c(Cn2nc(-c3cc(O)cc(F)c3)c3c(N)ncnc32)nc2scc(C)c2c1=O	< 100 nM	< 100 nM
Cc1cccc2cc(Cn3nc(-c4cc(O)cc(F)c4)c4c(N)ncnc43)n(-c3ccccc3Cl)c(=O)c12	< 100 nM	< 100 nM
Cc1cccc2cc(Cn3nc(-c4ccc(O)c(F)c4)c4c(N)ncnc43)n(-c3ccccc3F)c(=O)c12	< 100 nM	
Cc1ccccc1-n1c(Cn2nc(I)c3c(N)ncnc32)cc2cccc(C)c2c1=O	< 100 nM	< 100 nM
Cc1cccc2cc(Cn3nc(I)c4c(N)ncnc43)n(-c3ccccc3C(C)C)c(=O)c12	< 100 nM	< 100 nM
CCc1ccccc1-n1c(Cn2nc(-c3cccc(O)c3)c3c(N)ncnc32)cc2cccc(C)c2c1=O	< 100 nM	< 100 nM

SMILES	IC50 [1]	IC50 [2]
COc1ccccc1-n1c(Cn2nc(-c3cccc(O)c3)c3c(N)ncnc32)cc2cccc(C)c2c1=O	< 100 nM	< 100 nM
Cc1ccccc1-n1c(Cn2nc(-c3cnc4[nH]ccc4c3)c3c(N)ncnc32)cc2cccc(C)c2c1=O	< 100 nM	< 100 nM
Cc1ccccc1-n1c(Cn2nc(-c3cn[nH]c3)c3c(N)ncnc32)cc2cccc(C)c2c1=O	< 100 nM	< 100 nM
Cc1cccc2cc(Cn3nc(-c4cc(O)cc(F)c4)c4c(N)ncnc43)n(-c3ccccc3O)c(=O)c12	< 100 nM	< 100 nM
Cc1cccc2cc(Cn3nc(-c4ccc(F)c(O)c4)c4c(N)ncnc43)n(C(C)C)c(=O)c12	< 100 nM	< 100 nM
Cc1cccc2cc(Cn3nc(-c4cccc(O)c4)c4c(N)ncnc43)n(-c3ccccc3O)c(=O)c12	< 100 nM	< 100 nM
Cc1cccc2cc(Cn3nc(-c4cc(O)cc(F)c4)c4c(N)ncnc43)n(-c3ccccc3)c(=O)c12	< 100 nM	< 100 nM
Cc1ccccc1-n1c(Cn2nc(C=C3SC(=O)NC3=O)c3c(N)ncnc32)cc2cccc(C)c2c1=O	< 100 nM	< 100 nM
Cc1ccccc1-n1c(Cn2nc(I)c3c(N)ncnc32)cc2ccccc2c1=O	< 100 nM	
Cc1cccc2cc(Cn3nc(I)c4c(N)ncnc43)n(C3CCCCC3)c(=O)c12	< 100 nM	
Cc1cccc2cc(Cn3nc(C#C[C@@H](C)O)c4c(N)ncnc43)n(-c3ccccc3C(C)C)c(=O)c12	< 100 nM	< 100 nM
Cc1ccccc1-n1c(Cn2nc(-c3ccc4nc(N)ccc4c3)c3c(N)ncnc32)cc2cccc(C)c2c1=O	< 100 nM	< 100 nM
Cc1ccccc1-n1c(Cn2nc(-c3ccn[nH]3)c3c(N)ncnc32)cc2cccc(C)c2c1=O	< 100 nM	
COc1ccc(-c2nn(Cc3cc4cccc(C)c4c(=O)n3-c3ccccc3C)c3ncnc(N)c23)cc1	< 100 nM	
COc1cc(-c2nn(Cc3cc4cccc(C)c4c(=O)n3-c3ccccc3C)c3ncnc(N)c23)ccc1Cl	< 100 nM	
Cc1cccc2cc(Cn3nc(-c4ccc(F)c(O)c4)c4c(N)ncnc43)n(-c3ccccc3F)c(=O)c12		< 100 nM
Cc1ccccc1-n1c(Cn2nc(Cl)c3c(N)ncnc32)cc2cccc(C)c2c1=O		< 100 nM
Cc1csc2nc(Cn3nc(-c4cccc(O)c4)c4c(N)ncnc43)n(-c3ccccc3Cl)c(=O)c12		< 100 nM
Cc1cccc2cc(Cn3nc(C#C[C@@H](C)O)c4c(N)ncnc43)n(-c3ccccc3Cl)c(=O)c12		< 100 nM
Cc1csc2nc(Cn3nc(Br)c4c(N)ncnc43)n(-c3ccccc3C(F)(F)F)c(=O)c12		< 100 nM
Cc1cccc2cc(Cn3nc(C#C[C@@H](C)O)c4c(N)ncnc43)n(C3CC3)c(=O)c12		< 100 nM
Cc1ccccc1-n1c(Cn2nc(-c3cccc(O)c3)c3c(N)ncnc32)nc2cnn(C)c2c1=O		< 100 nM
Cc1ccccc1-n1c(Cn2nc(-c3cc(O)cc(F)c3)c3c(N)nccc32)cc2cccc(C)c2c1=O		< 100 nM
Cc1ccccc1-n1c(Cn2nc(-c3cc(O)cc(F)c3)c3c(N)ncnc32)cc2ncccc2c1=O		< 100 nM
